In patent publication US20210115104A1, “AMYLIN ANALOGUES” (Zealand Pharma A/S, priority 2015, published 2021):
Where two headings read alike, the source gives them in different places. *1 amine or outer side, *2 acyl side, *3 side chain or, on linkers, in order; H or OH if unused. Where a SMILES comes first, the peptide text is derived from it. Bridges are numbered along the chain shown (N, C = ends). [ ]: non-standard residue; d: D form. The star is where a group is joined. C20 diacid = O=C(O)CCCCCCCCCCCCCCCCCCC(=O)*; γGlu = O=C(O)[C@H](CCC(=O)[*:2])N[*:1]; Hyp = O=C(O)[C@@H]1C[C@@H](O)CN1; NMeI = CC[C@H](C)[C@H](NC)C(=O)O; Sar = CNCC(=O)O

Legend:
[1] = Assessment of physical stability (Thioflavin T fibrillation); type: physicochemical; parameters: key: FND = fibrillation not detected; FD = fibrillation detected; conditions: 1 mg/ml, 40° C., ThT; for Fibrillation pH 4.0 (Ac): 50 mM acetate buffer pH 4.0, 96 hours; for Fibrillation pH 7.0 (His): 50 mM histidine buffer pH 7.0, 96 hours; for Fibrillation pH 7.0 (Phos.): 50 mM phosphate buffer pH 7.0, 96 hours
Summary of the method: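 Fibrillation lag-time, in hours, taken where regressions of the initial stable phase and the growth phase intersect. ThT (40 μM) fluorescence monitored at 40 °C for 96 h, 10-min reads each preceded by 300 s mixing. Peptide at 1 mg/ml in 50 mM buffers: phosphate or histidine pH 7.0, acetate pH 4.0.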

[2] = Assessment of chemical stability (RP-HPLC normalized purity); type: physicochemical; conditions: 7 days, 40° C., Table 1; for Normalized purity after 7 days, 40° C., pH 4: pH 4, 0.2 mg/ml; for Normalized purity after 7 days, 40° C., pH 6: pH 6, 0.2 mg/ml; for Normalized purity after 7 days, 40° C., pH 7.5: pH 7.5, 0.2 mg/ml; for Normalized purity after 7 days, 40° C., pH 9: pH 9, 0.2 mg/ml
Summary of the method: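 Purity after 7 days at 40° C is expressed relative to T=0 (set to 100) for each pH. Samples at 0.2 mg/ml, pH 4, 6, 7.5 or 9, analyzed by RP-HPLC with UV 220 nm on C8 (ammonium formate) or C18 (TFA) gradients.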

[3] = molecular target: T1, human calcitonin receptor (hCTR2) (Homo sapiens, UniProt P30988); assay: hCTR2 cAMP assay (AlphaScreen) in COS7 cells; type: cell-based; conditions: cAMP induction, COS7 cells expressing hCTR2; Table 1; read-out: hCTR2 EC50
T1 construct: expressed in transfected cells
T1 sequence (P30988 25-474): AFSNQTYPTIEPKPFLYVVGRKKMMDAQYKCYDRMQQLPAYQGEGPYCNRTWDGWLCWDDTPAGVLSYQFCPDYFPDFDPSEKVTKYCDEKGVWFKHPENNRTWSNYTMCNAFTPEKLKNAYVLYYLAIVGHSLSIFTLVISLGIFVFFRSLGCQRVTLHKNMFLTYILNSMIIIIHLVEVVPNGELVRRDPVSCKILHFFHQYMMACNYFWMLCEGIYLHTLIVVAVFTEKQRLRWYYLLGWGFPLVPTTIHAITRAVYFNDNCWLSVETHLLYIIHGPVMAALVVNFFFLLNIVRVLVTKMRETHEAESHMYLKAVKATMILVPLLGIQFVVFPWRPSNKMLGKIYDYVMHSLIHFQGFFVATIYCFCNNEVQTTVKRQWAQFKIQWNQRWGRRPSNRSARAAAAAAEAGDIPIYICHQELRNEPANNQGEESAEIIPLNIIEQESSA
Summary of the method: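 cAMP induction, read by AlphaScreen after lysis, gives EC50 values via 4PL curve fitting. Peptides were applied at rising concentrations for 15 min at 37 °C, with IBMX and 0.1% casein in HEPES-buffered Tyrode pH 7.4, to COS7 cells (no endogenous RAMPs) stably expressing human CTR2.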

[4] = Assessment of solubility (turbidity absorbance at 325 nm); type: physicochemical; conditions: named as exception to solubility ≥1 mg/ml
Experimental: A stock solution of the test peptide (2 mg/ml; determined from the weighed amount of peptide) in demineralized water adjusted to pH 2.5 with HCl was prepared, and aliquots were diluted 1:1 in 100 mM acetate buffer (pH 4.0 and pH 5.0), 100 mM histidine buffer (pH 6.0 and pH 7.0) and 100 mM phosphate buffer (pH 6.0, pH 7.0 and pH7.5), respectively, and loaded in a standard flat-bottom, non-sterile 96-well UV Microplate. The absorbance of samples (single samples, n=1) at 280 and 325 nm was measured in an absorbance-based plate reader, which was preheated to ambient temperature (typically 25° C.). The turbidity absorbance criterion for a peptide solubility of ≥1 mg/ml was an absorbance at 325 nm of s 0.02 absorbance units (which is 5 to 6 times the standard deviation of 8 buffer samples in a plate).

[5] = molecular target: T2, human amylin receptor 3 (hAMYR3), hCTR2 co-expressed with hRAMP3 (Homo sapiens, UniProt O60896+P30988); assay: hAMYR3 cAMP assay (AlphaScreen) in COS7 cells; type: cell-based; conditions: cAMP induction, COS7 cells expressing hAMYR3; Table 1; read-out: hAMYR3 EC50
T2 construct: expressed in transfected cells
T2 sequence (P30988 25-474): T1 sequence (P30988 25-474)
T2 sequence (O60896 24-148 partner): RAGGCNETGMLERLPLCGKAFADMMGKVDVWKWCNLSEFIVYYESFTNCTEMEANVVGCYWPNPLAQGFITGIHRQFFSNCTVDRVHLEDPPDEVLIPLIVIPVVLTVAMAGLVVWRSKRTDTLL
Summary of the method: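 EC50 values derive from 4PL curve fits of cAMP (AlphaScreen) in lysates of RAMP-naive COS7 cells stably carrying hCTR2 plus hRAMP3. Peptide dilution series were applied for 15 min at 37 °C in pH 7.4 Tyrode buffer containing 100 µM IBMX and 0.1% casein.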

[6] = Pharmacokinetic (PK) profiling in rats; type: in vivo, rat; parameters: CI/F (apparent clearance values): unit not given here; conditions: Sprague Dawley male rats, single sc 30 nmol/kg
Experimental: Sprague Dawley male rats were given a single subcutaneous (sc) bolus of each peptide to be tested, as specified below. 30 nmol/kg doses of compound were administered. Blood samples were drawn from the tail vein prior to dosing and at 24, 48, 72, 96 and 168 hours after dosing. Blood samples were taken from two rats at each time point, and only 2 blood samples were drawn from each rat, i.e. […] were used for each compound. The rats were euthanized immediately after the last blood sampling by concussion and cervical dislocation.
The dosing vehicle used for each test peptide was a mannitol-containing histidine buffer (pH 7.0). Plasma samples were analyzed after precipitation with ethanol by liquid chromatography mass spectrometry (LC-MS/MS). Mean plasma concentrations were used for calculation of the pharmacokinetic parameters using the non-compartmental approach in Phoenix WinNonlin 6.3.
Plasma terminal elimination half-life (t1/2) was determined as ln(2)/λz, where λz is the magnitude of the slope of the log linear regression of the log concentration versus time profile during the terminal phase. Apparent clearance (CL/F) was determined as dose/AUCinf (sc), where AUCinf is the area under the plasma concentration vs. time curve extrapolated to infinity (AUCinf=AUClast+Clast/λz, where Clast is the last observed plasma concentration).

Fibrillation pH 4.0 (Ac) [1] | Fibrillation pH 7.0 (His) [1] | Fibrillation pH 7.0 (Phos.) [1] | Normalized purity after 7 days, 40° C., pH 4 [2] | Normalized purity after 7 days, 40° C., pH 6 [2] | Normalized purity after 7 days, 40° C., pH 7.5 [2] | Normalized purity after 7 days, 40° C., pH 9 [2] | EC50 [3] | solubility ([4]; pH 6.0, read-out: solubility at pH 6.0) | EC50 [5] | CI/F (apparent clearance values) [6] | solubility ([4]; pH 7.0, read-out: solubility at pH 7.0) | solubility ([4]; phosphate buffer, pH 7.5, read-out: solubility at pH 7.5) | SMILES
FND | FD | FD | A (A = >90%) | A (A = >90%) | B (B = 70-90%) | B (B = 70-90%) | 0.16 nM | < 1000 µg/mL | – | – | – | – | CC[C@H](C)[C@@H](C(=O)N[C@@H](CC(C)C)C(=O)N[C@@H](CO)C(=O)N[C@@H](CO)C(=O)N[C@H](C(=O)N[C@@H](CCC(=O)O)C(=O)N[C@H](C(=O)NCC(=O)N[C@@H](CO)C(=O)N[C@@H](Cc1ccccc1)C(=O)N[C@H](C(=O)N1C[C@H](O)C[C@H]1C(N)=O)[C@@H](C)O)C(C)C)[C@@H](C)O)N(C)C(=O)[C@H](C)NC(=O)CN(C)C(=O)[C@H](Cc1ccccc1)NC(=O)[C@H](CO)NC(=O)[C@H](CO)NC(=O)[C@H](CCCNC(=N)N)NC(=O)[C@@H](NC(=O)[C@H](CC(C)C)NC(=O)[C@H](Cc1ccccc1)NC(=O)[C@H](Cc1c[nH]cn1)NC(=O)[C@H](C)NC(=O)[C@H](CC(C)C)NC(=O)[C@H](CCCNC(=N)N)NC(=O)[C@H](CCC(=O)O)NC(=O)[C@@H](NC(=O)[C@H](C)NC(=O)[C@@H]1CSSC[C@H](NC(=O)[C@H](CCCNC(=N)N)NC(=O)CC[C@H](NC(=O)CCCCCCCCCCCCCCCCCCC(=O)O)C(=O)O)C(=O)NCC(=O)N[C@@H]([C@@H](C)O)C(=O)N[C@@H](C)C(=O)N[C@@H]([C@@H](C)O)C(=O)N1)[C@@H](C)O)[C@@H](C)O [Compound 10, [19CD]-isoGlu-R-C( )-GTAT-C( )-ATERLAHFLTRSSF-Gly(Me)-A-Ile(Me)-LSSTEVGSFT-Hyp-NH2] ({C20 diacid-γGlu}-RCGTATCATERLAHFLTRSSF[Sar]A[NMeI]LSSTEVGSFT[Hyp]-NH2; disulfide 2-7)
FND | FD | FD | A (A = >90%) | A (A = >90%) | A (A = >90%) | A (A = >90%) | – | – | 0.38 nM | 0.0106 | – | – | CC[C@H](C)[C@@H](C(=O)N[C@@H](CC(C)C)C(=O)N[C@@H](CO)C(=O)N[C@@H](CO)C(=O)N[C@H](C(=O)N[C@@H](CCC(=O)O)C(=O)N[C@H](C(=O)NCC(=O)N[C@@H](CO)C(=O)NCC(=O)N[C@H](C(=O)N1C[C@H](O)C[C@H]1C(N)=O)[C@@H](C)O)C(C)C)[C@@H](C)O)N(C)C(=O)[C@H](C)NC(=O)CN(C)C(=O)[C@H](Cc1ccccc1)NC(=O)[C@H](CO)NC(=O)[C@H](CO)NC(=O)[C@H](CCCNC(=N)N)NC(=O)[C@@H](NC(=O)[C@H](CC(C)C)NC(=O)[C@H](Cc1ccccc1)NC(=O)[C@H](Cc1c[nH]cn1)NC(=O)[C@H](C)NC(=O)[C@H](CC(C)C)NC(=O)[C@H](CCCNC(=N)N)NC(=O)[C@H](CCC(=O)O)NC(=O)[C@@H](NC(=O)[C@H](C)NC(=O)[C@@H]1CSSC[C@H](NC(=O)[C@H](CCCNC(=N)N)NC(=O)CC[C@H](NC(=O)CCCCCCCCCCCCCCCCCCC(=O)O)C(=O)O)C(=O)NCC(=O)N[C@@H]([C@@H](C)O)C(=O)N[C@@H](C)C(=O)N[C@@H]([C@@H](C)O)C(=O)N1)[C@@H](C)O)[C@@H](C)O [Compound 13, [19CD]-isoGlu-R-C( )-GTAT-C( )-ATERLAHFLTRSSF-Gly(Me)-A-Ile(Me)-LSSTEVGSGT-Hyp-NH2] ({C20 diacid-γGlu}-RCGTATCATERLAHFLTRSSF[Sar]A[NMeI]LSSTEVGSGT[Hyp]-NH2; disulfide 2-7)
– | – | – | – | – | – | – | 0.09 nM | – | 0.29 nM | – | < 1000 µg/mL | < 1000 µg/mL | CC[C@H](C)[C@@H](C(=O)N[C@@H](CC(C)C)C(=O)N[C@@H](CO)C(=O)N[C@@H](CO)C(=O)N[C@H](C(=O)N[C@@H](CCC(=O)O)C(=O)N[C@H](C(=O)NCC(=O)N[C@@H](CO)C(=O)N[C@@H](CO)C(=O)N[C@H](C(=O)N1C[C@H](O)C[C@H]1C(N)=O)[C@@H](C)O)C(C)C)[C@@H](C)O)N(C)C(=O)[C@H](C)NC(=O)CN(C)C(=O)[C@H](Cc1ccccc1)NC(=O)[C@H](CO)NC(=O)[C@H](CO)NC(=O)[C@H](CCCNC(=N)N)NC(=O)[C@@H](NC(=O)[C@H](CC(C)C)NC(=O)[C@H](Cc1ccccc1)NC(=O)[C@H](Cc1c[nH]cn1)NC(=O)[C@H](C)NC(=O)[C@H](CC(C)C)NC(=O)[C@H](CCCNC(=N)N)NC(=O)[C@H](CCC(=O)O)NC(=O)[C@@H](NC(=O)[C@H](C)NC(=O)[C@@H]1CSSC[C@H](NC(=O)[C@H](CCCNC(=N)N)NC(=O)CC[C@H](NC(=O)CCCCCCCCCCCCCCCCCCC(=O)O)C(=O)O)C(=O)NCC(=O)N[C@@H]([C@@H](C)O)C(=O)N[C@@H](C)C(=O)N[C@@H]([C@@H](C)O)C(=O)N1)[C@@H](C)O)C(C)C [Compound 31, [19CD]-isoGlu-R-C( )-GTAT-C( )-ATERLAHFLVRSSF-Gly(Me)-A-Ile(Me)-LSSTEVGSST-Hyp-NH2] ({C20 diacid-γGlu}-RCGTATCATERLAHFLVRSSF[Sar]A[NMeI]LSSTEVGSST[Hyp]-NH2; disulfide 2-7)
